From patent publication US20050197634A1, “Methods for coating and impregnating medical devices with antiseptic compositions” (Board of Regents, The University of Texas System, priority 2004, published 2005)

How the values were obtained:
[1] = system: Candida parapsilosis (C. Parap.1-100-0022); test: Zones of inhibition of impregnated device segments, modified Kirby-Bauer technique; format: cell-based; conditions: in words
Experimental: (§1) In Vitro antimicrobial activity. The antimicrobial activity of impregnated catheters was evaluated in duplicate by a modified Kirby-Bauer technique. BBL Mueller Hinton II agar plates (obtained from Fisher Scientific) were inoculated with 0.5 McFarland of the appropriate microorganism (hospital isolates from the MD Anderson Cancer Center). Then 10 mm segments of impregnated devices were embedded in the inoculated plates and placed in an incubator at about 37° C. for at least 18 hours. Zones of inhibition were measured perpendicular to the long axis of the device.
(§2) Anti-microbial activity of GND-ETT and GND-UC segments was assessed by modified Kirby-Bauer method. Segments were embedded in Mueller Hinton agar plates inoculated with one of the following organisms: Candida albicans (CA), vancomycin resistant enterococci (VRE), E. coli (EC), Candida parapsilosis(CP), methicillin resistant S. aureus (MRSA) or Pseudomonas aeruginosa (PS). Plates were incubated at 37° C. Zones of inhibition (ZOI) created by impregnated segments were measured in mm.
(§3) GND-ETT and GND-UC were immersed in sterile pooled bronchoalveolar lavage (BAL) or urine, respectively, and incubated at 37° C. BAL and urine were changed weekly and ZOI were determined in duplicate at weekly intervals.

[2] = system: Methicillin resistant Staph. aureus (MRSA2066); test: as above; format: cell-based; conditions: in words
Experimental: as §1, §2, §3

[3] = system: various nosocomial pathogens; test: In vitro zones of inhibition of coated or impregnated catheter devices and sutures; format: cell-based; conditions: coating or impregnating catheter devices and sutures
Experimental: as §1

[4] = system: Alcaligenes faecalis; test: Zones of inhibition of impregnated PVC tubes; format: cell-based; conditions: in words
Experimental: as §1

[5] = system: Pseudomonas aeruginosa; test: Zones of inhibition of impregnated device segments, modified Kirby-Bauer technique; format: cell-based; conditions: gentian violet after impregnating surfaces of various polymers incl. polyvinylchloride
Experimental: as §1, §2, §3

[6] = system: S. epidermis; conditions: in vitro study, gentian violet alone; cited from earlier work
[7] = sutures, compared with Genlenol

Structure (SMILES): CN(C)c1ccc(C(=C2C=CC(=[N+](C)C)C=C2)c2ccc(N(C)C)cc2)cc1.Cc1cc([O-])cc(C)c1Cl [Genlenol]
- zones of inhibition against C. parapsilosis ([1]; PVC tubes and PVC catheters): Improvements
- zone against C. parapsilosis ([1]; silicone catheter): large zone
- zone against MRSA ([2]; silicone catheter): increased the zone against MRSA considerably
- in vitro zones of inhibition against various nosocomial pathogens [3]: large in vitro zones of inhibition
- zones of inhibition against Alcaligenes faecalis [4]: to a large extent

Structure (SMILES): Cc1cc(O)cc(C)c1Cl [PCMX, p-chloro-m-xylenol; 4-chloro-3,5-dimethylxylenol, reference compound]
- in vitro zones of inhibition against various nosocomial pathogens [3]: Neither the neutral form of PCMX nor its sodium salt could produce in vitro zones of inhibition

Structure (SMILES): CN(C)c1ccc(C(=C2C=CC(=[N+](C)C)C=C2)c2ccc(N(C)C)cc2)cc1 [GV, Gentian violet]
- activity against Pseudomonas aeruginosa, agent on its own [5]: no activity
- colonization of S. epidermis on impregnated CSF silicone shunt surfaces [6]: prevent the colonization

Structure (SMILES): CC(C)(C)CC(C)(C)c1ccc([O-])c(Cc2ccc(Cl)cc2Cl)c1.CN(C)c1ccc(C(=C2C=CC(=[N+](C)C)C=C2)c2ccc(N(C)C)cc2)cc1 [Genfoctol]
- zones against C. parapsilosis [1, 7]: much larger zones
- zones against MRSA [2, 7]: much larger zones
- in vitro zones of inhibition against various nosocomial pathogens [3]: large in vitro zones of inhibition

Structure (SMILES): [H]/N=C(\N/C(=N/[H])NCCCCCCNC(=N)NC(=N)Nc1ccc(Cl)cc1)Nc1ccc(Cl)cc1 [chlorhexidine]
- activity against Pseudomonas aeruginosa, agent on its own [5]: not highly active

Structure (SMILES): CN(C)c1ccc(C(=C2C=CC(=[N+](C)C)C=C2)c2ccc(N(C)C)cc2)cc1.[O-]c1cc(Cl)ccc1Oc1ccc(Cl)cc1Cl [Genlosan]
- in vitro zones of inhibition against various nosocomial pathogens [3]: large in vitro zones of inhibition
